These results are taken from BindingDB's records for doi:10.1021/jm1001698 (Institute of Health Sciences, 2010).

The target in this assay is Bcl-xL (Homo sapiens). Kind of assay: Displacement of FITC-labeled Bak-BH3 peptide from Bcl-XL after 1 hr by fluorescence polarization assay. (In fluorescence polarisation assays a small probe gives low polarisation when free and higher when bound to something large.)

Each structure is given as a SMILES string.

In general, IC50 refers to the point on the concentration scale where inhibition reaches its midpoint. A high value points to weaker potency in that assay. In turn, `C=c1c(-c2c(O)c3c(C=N[C@@H]4C(=O)N5[C@@H]4SC(C)(C)[C@@H]5C(=O)O)c(O)c(O)c(=C(C)C)c3c(O)c2=C)c(O)c2c(C=N[C@@H]3C(=O)N4[C@@H]3SC(C)(C)[C@@H]4C(=O)O)c(O)c(O)c(=C(C)C)c2c1O` [sodium(2S,2'S,5R,5'R,6R,6'R)-6,6'-((1E,1'E)-(6,6',7,7'-tetrahydroxy-5,5'-diisopropyl-3,3'-dimethyl-1,1',4,4'-tetraoxo-1,1',4,4'-tetrahydro-2,2'-binaphthyl-8,8'-diyl)bis(methan-1-yl-1-ylidene)bis(azan-1-yl-1-ylidene))bis(3,3-dimethyl-7-oxo-4-thia-1-azabicyclo[3.2.0]heptane-2-carboxylate)] gave an IC50 of 1760 nM.
